Measurements reported in patent US20250288704A1, “CXCR4-LIGANDS FOR DIAGNOSTIC AND THERAPEUTIC USE AND PRECURSORS THEREOF” (priority 2021, published 2025).
Where two headings read alike, the source gives them in different places. Positions of bridges follow the written chain, without caps; N, C: chain ends. Non-standard residues stand in square brackets, D forms with d. Residues, ends and D or L forms follow the SMILES beside them. Chains are numbered I, II in the order given. *: point of attachment. X2 = OC[C@H]1O[C@@H](O[C@H]2[C@H](O)[C@@H](O)[C@H](*)O[C@@H]2CO)[C@H](O)[C@@H](O)[C@H]1O; X5 = CC(C)(C)[Si](F)(c1ccc(C[N+](C)(C)CC(=O)*)cc1)C(C)(C)C; DOTA = O=C(O)CN1CCN(CC(=O)O)CCN(CC(=O)*)CCN(CC(=O)O)CC1; 2Nal = N[C@@H](Cc1ccc2ccccc2c1)C(=O)O; dNMeOrn = CN[C@H](CCCN)C(=O)O; d(hCys) = N[C@H](CCS)C(=O)O; Mercaptoacetyl = O=C(CS)*; X4 = OCC1OC(*)C(O)C(O)C1O; 4Abz = Nc1ccc(C(=O)O)cc1; dDap = NC[C@@H](N)C(=O)O; Ahx = NCCCCCC(=O)O

Experiments:
[1] = tested on: CXCR4-expressing Chem_1 cells; assay: Determination of internalization, dual tracer with 125I-Fc-131; assay type: cell-based; settings: for Cell-bound [%] / Internalized [%]: of total cellular activity
In short: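 Receptor blockade used AMD3100 (1 mM stock) versus medium-treated wells, triplicate per time point, in Chem_1 cells cultured at 37 °C in DMEM-F12/10% FBS. Activity of supernatant, surface-bound and internalized (1 M NaOH) fractions measured by γ-counter, corrected for non-specific uptake and normalised to standard ligand.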

[2] = Octanol/PBS partition coefficient (logD7.4); assay type: physicochemical; settings: n-octanol/PBS pH 7.4, radiolabeled compound
Experimental: The tubes were vortexed at maximum speed for 3 min to ensure equilibrium before centrifugation at 15.000×g for 5 min on a Biofuge 15 from Heraeus Holding GmbH (Osterode, Germany). An aliquot of 100 μL of each fraction was measured in the γ-counter and the log D7.4 calculated as follows: […]

[3] = tested on: Jurkat tumor-bearing CB-17 SCID mice; assay: Biodistribution in Jurkat tumor-bearing CB-17 SCID mice; assay type: in vivo; settings: 1 h p.i., 1 mouse
In short: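 Radioligand (125I, 177Lu, 99mTc, 18F or 68Ga label; roughly 0.5-20 MBq, 0.02-0.20 nmol) was injected intravenously via tail vein. Hosts were CB17-SCID mice with subcutaneous Jurkat tumors of 5-8 mm, 4-10 weeks post-inoculation. Dissected organs were weighed and counted in a γ-counter.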

CXCR4 [4] = target: T1, CXCR4 (Homo sapiens, UniProt P61073); assay: Determination of IC50: competition with 125I-Fc-131 on CXCR4-positive Jurkat cells; assay type: binding; parameters: CXCR4-positive Jurkat T lymphocyte cells were grown in Gibco's RPMI 1640 GlutaMAX medium; endogenous in cells; host or cells: Jurkat T lymphocyte cells (whole cells in suspension, 400.000 per tube);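 note: test compound at 10^−5 to 10^−11 M competed for 2 h at 8 °C with the radioligand on 400,000 cells per well, bound versus free activity measured by γ-counting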
T1 sequence (P61073 whole entry): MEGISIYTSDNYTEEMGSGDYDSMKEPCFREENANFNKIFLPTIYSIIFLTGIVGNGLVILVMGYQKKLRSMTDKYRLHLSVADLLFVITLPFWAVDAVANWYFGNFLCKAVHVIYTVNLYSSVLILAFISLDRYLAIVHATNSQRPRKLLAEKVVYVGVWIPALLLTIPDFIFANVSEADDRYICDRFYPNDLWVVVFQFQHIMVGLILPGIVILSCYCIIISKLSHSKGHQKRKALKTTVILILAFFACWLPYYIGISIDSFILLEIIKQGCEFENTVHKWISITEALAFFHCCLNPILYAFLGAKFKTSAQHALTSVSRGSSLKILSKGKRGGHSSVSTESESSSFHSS

[5] = Biodistribution in Daudi xenograft bearing CB-17 SCID mice; assay type: in vivo; settings: mouse, iv, total radioactivity, 1 h p.i., CB-17 SCID female mice
CXCR4 [6] = target: T1, CXCR4; assay: Determination of inverse IC50 (invIC50): radiolabeled peptide displaced by Fc-131 on Jurkat cells
Experimental: For in vitro experiments, cells were counted in a hemocytometer using trypan blue as contrast agent. The cell suspension was centrifuged, and the pellet resuspended in HBSS (+1 wt % BSA) to a concentration of 2 mio cells/mL. 8×3 polystyrene tubes were loaded with 25 μL of the standard ligand ^125I-Fc-131 (see 4.1, 1.00 nM in HBSS) and 25 μL of the ligand to investigate in the respective concentration (10^−4-10^−10 M, n=3 for each concentration). 200 μL of cell suspension (400.000 cells per well) were added to obtain a final peptide concentration range of 10^−5-10^−11 M. The tubes were cooled for 2 h at 8° C. to prevent internalization. The experiment was stopped by removal of the supernatant. 200 μL HBSS were added onto the cells, the suspension centrifuged, and the supernatant pooled with the respective first fractions. This step was repeated once more before the tubes containing the supernatants and the ones containing the cell pellets were subjected to activity measurement in the γ-counter.
For the determination of inverse IC50 (invIC50) values the protocol for the determination of regular IC50 values was resumed with minor changes. The peptide under investigation was radioactively labeled and a stock solution was prepared in HBSS (2.00 nM). A concentration gradient of the standard ligand Fc-131 was prepared in HBSS (10^−4-10^−10 M). A cell tube was then containing 25 μL of the radioactive peptide solution, 25 μL of the respective Fc-131 solution and 200 μL cell suspension (400.000 cells). The experiment was conducted as described above.

[7] = 2,000 pmol cold substance co-injected
[8] = co-injection of 1,000 μmol (so in the source) cold substance vs 36 pmol

## C[C@@H](NC(=O)[C@@H](CCCNC(=N)N)NC(=O)[C@@H](CN)NC(=O)CCCCCNC(=O)[C@@H](CNC(=O)CN1CCN(CC(=O)O)CCN(CC(=O)O)CCN(CC(=O)O)CC1)NC(=O)[C@@H](CCS[C@@H]1O[C@H](CO)[C@@H](O[C@@H]2O[C@H](CO)[C@H](O)[C@H](O)[C@H]2O)[C@H](O)[C@H]1O)NC(=O)C[N+](C)(C)Cc1ccc([Si](F)(C(C)(C)C)C(C)(C)C)cc1)C(=O)Nc1ccc(C(=O)NCCC[C@@H]2C(=O)N[C@@H](CCCNC(=N)N)C(=O)N[C@@H](Cc3ccc4ccccc4c3)C(=O)NCC(=O)N[C@H](Cc3ccc(O)cc3)C(=O)N2C)cc1 [CXCR4-SiFA-7 [Ga]] (I: X5-[d(hCys)](X2)[dDap](DOTA)[Ahx][dDap][dR][dA][4Abz] / II: cyclo([dY][dNMeOrn]R[2Nal]G); amide I:C-II:2)
[1]; 30 min
  Internalized in relation to 125I-Fc-131 [%]: 837 ± 51.4%
  Cell-bound [%]: 0.11 ± 0.29%
  Internalized [%]: 38.9 ± 1.09%
[1]; 90 min
  Internalization [% Fc-131]: 1029 % Fc-131
  Internalized in relation to 125I-Fc-131 [%]: 1029 ± 66.7%
  Cell-bound [%]: 0 ± 0.41%
  Internalized [%]: 50.0 ± 1.12%
[2]
  logD7.4: −1.95 ± 0.05 (8)
[3]; [7]
  uptake in liver compared to biodistribution with 36 pmol: 70%
  uptake in spleen compared to biodistribution with 36 pmol: 61%
  uptake in tumor compared to biodistribution with 36 pmol: 40%
[3]; [8]
  Blood activity level raised by: 310%
  tumor uptake compared to un-supplemented injection: 180%
  uptake in liver compared to un-supplemented injection: 121%
  uptake in muscle compared to un-supplemented injection: 226%
  uptake in pancreas compared to un-supplemented injection: 196%
  uptake in spleen compared to un-supplemented injection: 114%
CXCR4 [4]; unlabeled or cold (natGa/natLu) compound vs 125I-Fc-131, Jurkat cells
  IC50: 6.23 ± 1.57 nM

## C[C@@H](NC(=O)[C@@H](CCCNC(=N)N)NC(=O)[C@@H](CO)NC(=O)[C@@H](CO)NC(=O)[C@@H](CO)NC(=O)CS)C(=O)Nc1ccc(C(=O)NCCC[C@@H]2C(=O)N[C@@H](CCCNC(=N)N)C(=O)N[C@@H](Cc3ccc4ccccc4c3)C(=O)NCC(=O)N[C@H](Cc3ccc(O)cc3)C(=O)N2C)cc1 [Tc-CXCR4-1] (I: Mercaptoacetyl-[dS][dS][dS][dR][dA][4Abz] / II: cyclo([dY][dNMeOrn]R[2Nal]G); amide I:C-II:2)
[5]; Blood, read-out: % iD/g Blood
  tissue uptake at 1 h: 0.83 %ID/g
[5]; Heart, read-out: % iD/g Heart
  tissue uptake at 1 h: 0.54 %ID/g
[5]; Intestine, read-out: % iD/g Intestine
  tissue uptake at 1 h: 1.12 %ID/g
[5]; Kidney, read-out: % iD/g Kidney
  tissue uptake at 1 h: 4 %ID/g
[5]; Liver, read-out: % iD/g Liver
  tissue uptake at 1 h: 3.54 %ID/g
[5]; Lung, read-out: % iD/g Lung
  tissue uptake at 1 h: 1.79 %ID/g
[5]; Muscle, read-out: % iD/g Muscle
  tissue uptake at 1 h: 0.16 %ID/g
[5]; Pancreas, read-out: % iD/g Pancreas
  tissue uptake at 1 h: 0.22 %ID/g
[5]; Spleen, read-out: % iD/g Spleen
  tissue uptake at 1 h: 1.09 %ID/g
[5]; Stomach, read-out: % iD/g Stomach
  tissue uptake at 1 h: 0.86 %ID/g
[5]; Tumor, read-out: % iD/g Tumor
  tissue uptake at 1 h: 1.41 %ID/g
CXCR4 [4]
  IC50: 20.6 ± 7.52 nM

## C[C@@H](NC(=O)[C@@H](CCCNC(=N)N)NC(=O)[C@@H](CN)NC(=O)[C@@H](CO)NC(=O)[C@@H](CCSC1OC(CO)C(O)C(O)C1O)NC(=O)[C@@H](CCSC1OC(CO)C(O)C(O)C1O)NC(=O)CS)C(=O)Nc1ccc(C(=O)NCCC[C@@H]2C(=O)N[C@@H](CCCNC(=N)N)C(=O)N[C@@H](Cc3ccc4ccccc4c3)C(=O)NCC(=O)N[C@H](Cc3ccc(O)cc3)C(=O)N2C)cc1 (stereo partly drawn) [Tc-CXCR4-10] (I: Mercaptoacetyl-[d(hCys)](X4)[d(hCys)](X4)[dS][dDap][dR][dA][4Abz] / II: cyclo([2Nal]G[dY][dNMeOrn]R); amide I:C-II:4)
[1]; 30 min
  Internalized in relation to 125I-Fc-131 [%]: 226 ± 10.2%
  Cell-bound [%]: 6.75 ± 0.76%
  Internalized [%]: 18.8± 0.66%
[1]; 90 min
  Internalization [% Fc-131]: 267 (90 min) % Fc-131
  Internalized in relation to 125I-Fc-131 [%]: 267 ± 8.94%
  Cell-bound [%]: 6.06 ± 0.34%
  Internalized [%]: 31.7 ± 0.52%
[2]
  logD7.4: −2.32 ± 0.02 (7)
CXCR4 [6]
  IC50: 5.13 ± 1.81 nM
